Reference: publication PMC9851200, “Multiparameter phenotypic screening for endogenous TFEB and TFE3 translocation identifies novel chemical series modulating lysosome function” (Autophagy, 2022)

Key:
TGFBR2 = TGFBR2 (Homo sapiens, UniProt P37173); settings: cited from earlier work
MTOR = MTOR (Homo sapiens, UniProt P42345); settings: cited from earlier work
ACVR1B = biological target: T1, ACVR1B (Homo sapiens, UniProt P36896); settings: cited from earlier work
T1 sequence (P36896 24-505): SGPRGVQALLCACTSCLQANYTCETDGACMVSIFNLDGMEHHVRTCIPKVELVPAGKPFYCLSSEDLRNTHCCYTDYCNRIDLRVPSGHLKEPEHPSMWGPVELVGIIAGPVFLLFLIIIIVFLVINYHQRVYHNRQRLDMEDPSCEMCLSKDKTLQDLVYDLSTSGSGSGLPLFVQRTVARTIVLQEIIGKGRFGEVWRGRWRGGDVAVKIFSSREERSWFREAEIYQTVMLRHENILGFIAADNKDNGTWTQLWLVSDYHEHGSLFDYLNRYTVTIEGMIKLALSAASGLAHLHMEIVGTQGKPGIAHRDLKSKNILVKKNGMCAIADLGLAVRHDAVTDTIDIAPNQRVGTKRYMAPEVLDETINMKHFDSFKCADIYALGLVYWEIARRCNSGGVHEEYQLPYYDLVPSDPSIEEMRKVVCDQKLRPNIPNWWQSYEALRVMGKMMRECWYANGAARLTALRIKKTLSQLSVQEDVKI

PRKD2 = biological target: T2, PRKD2 (Homo sapiens, UniProt Q9BZL6); settings: cited from earlier work
T2 sequence (Q9BZL6 1-878): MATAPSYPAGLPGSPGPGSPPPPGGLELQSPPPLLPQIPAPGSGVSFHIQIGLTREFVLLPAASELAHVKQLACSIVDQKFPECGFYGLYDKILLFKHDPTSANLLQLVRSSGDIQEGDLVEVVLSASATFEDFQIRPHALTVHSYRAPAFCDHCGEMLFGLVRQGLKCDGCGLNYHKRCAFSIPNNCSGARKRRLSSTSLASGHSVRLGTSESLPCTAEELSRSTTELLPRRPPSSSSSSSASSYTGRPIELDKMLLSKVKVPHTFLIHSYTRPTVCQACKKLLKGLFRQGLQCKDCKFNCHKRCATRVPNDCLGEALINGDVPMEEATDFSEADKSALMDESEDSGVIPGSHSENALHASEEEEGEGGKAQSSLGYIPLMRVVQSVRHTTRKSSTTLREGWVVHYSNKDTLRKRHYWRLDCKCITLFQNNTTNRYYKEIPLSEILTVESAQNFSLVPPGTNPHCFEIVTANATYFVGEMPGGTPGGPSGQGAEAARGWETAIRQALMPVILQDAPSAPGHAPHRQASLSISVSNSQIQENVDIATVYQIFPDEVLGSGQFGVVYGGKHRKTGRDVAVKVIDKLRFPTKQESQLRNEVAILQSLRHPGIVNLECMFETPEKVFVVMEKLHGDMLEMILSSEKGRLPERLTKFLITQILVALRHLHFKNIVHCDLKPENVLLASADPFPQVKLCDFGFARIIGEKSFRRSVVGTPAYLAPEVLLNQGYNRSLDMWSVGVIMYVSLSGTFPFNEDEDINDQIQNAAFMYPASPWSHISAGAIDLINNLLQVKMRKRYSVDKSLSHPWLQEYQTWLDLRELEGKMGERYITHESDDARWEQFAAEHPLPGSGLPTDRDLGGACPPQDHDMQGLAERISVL

CDC42BPG/DMPK2 = CDC42BPG/DMPK2 (Homo sapiens, UniProt Q6DT37); settings: cited from earlier work
Chain of CDC42BPG/DMPK2 (Q6DT37 whole entry): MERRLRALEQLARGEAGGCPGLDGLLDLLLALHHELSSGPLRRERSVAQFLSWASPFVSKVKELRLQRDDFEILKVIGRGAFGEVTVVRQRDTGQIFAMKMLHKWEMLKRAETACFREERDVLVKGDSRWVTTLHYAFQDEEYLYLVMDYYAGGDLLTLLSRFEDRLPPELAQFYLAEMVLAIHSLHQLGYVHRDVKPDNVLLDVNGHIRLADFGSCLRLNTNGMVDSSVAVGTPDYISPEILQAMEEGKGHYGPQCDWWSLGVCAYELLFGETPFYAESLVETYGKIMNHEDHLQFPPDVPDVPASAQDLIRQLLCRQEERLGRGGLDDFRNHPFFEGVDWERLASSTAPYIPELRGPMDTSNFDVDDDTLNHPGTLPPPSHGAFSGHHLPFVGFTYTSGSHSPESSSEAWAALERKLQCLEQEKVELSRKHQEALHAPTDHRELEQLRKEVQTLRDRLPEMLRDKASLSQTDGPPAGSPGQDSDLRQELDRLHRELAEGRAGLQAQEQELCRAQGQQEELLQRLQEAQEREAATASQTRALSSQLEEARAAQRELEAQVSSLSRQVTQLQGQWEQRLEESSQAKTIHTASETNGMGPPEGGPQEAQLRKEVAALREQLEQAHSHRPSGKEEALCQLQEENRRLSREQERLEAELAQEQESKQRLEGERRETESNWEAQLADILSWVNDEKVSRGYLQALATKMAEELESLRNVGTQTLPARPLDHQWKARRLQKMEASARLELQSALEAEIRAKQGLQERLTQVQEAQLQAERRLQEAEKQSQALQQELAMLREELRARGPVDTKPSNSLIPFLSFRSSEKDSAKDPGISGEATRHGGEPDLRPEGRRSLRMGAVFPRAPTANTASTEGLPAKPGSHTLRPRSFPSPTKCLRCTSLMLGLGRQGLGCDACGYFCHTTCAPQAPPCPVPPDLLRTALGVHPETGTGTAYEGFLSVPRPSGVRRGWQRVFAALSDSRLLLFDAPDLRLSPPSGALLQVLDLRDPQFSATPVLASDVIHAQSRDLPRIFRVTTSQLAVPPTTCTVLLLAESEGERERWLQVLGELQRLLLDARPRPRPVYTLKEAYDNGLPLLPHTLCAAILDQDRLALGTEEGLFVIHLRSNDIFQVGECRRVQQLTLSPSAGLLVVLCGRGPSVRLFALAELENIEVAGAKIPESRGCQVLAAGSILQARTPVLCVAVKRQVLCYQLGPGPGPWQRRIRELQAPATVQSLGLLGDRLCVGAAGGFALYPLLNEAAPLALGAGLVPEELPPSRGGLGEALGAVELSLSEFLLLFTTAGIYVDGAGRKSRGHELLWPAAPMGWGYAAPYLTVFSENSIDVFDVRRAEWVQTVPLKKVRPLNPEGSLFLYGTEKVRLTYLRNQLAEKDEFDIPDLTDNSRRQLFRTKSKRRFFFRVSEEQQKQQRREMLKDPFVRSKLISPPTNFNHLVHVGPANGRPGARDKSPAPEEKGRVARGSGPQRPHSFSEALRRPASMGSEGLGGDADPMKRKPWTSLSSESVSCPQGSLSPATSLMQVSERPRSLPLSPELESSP

endogenous TFE3 = assay: TFE3 nuclear translocation, immunocytochemistry high-content imaging; format: cell-based; settings: for TFE3 %: PKIS2 primary screening; for nTFE3 %: primary screen, 1 µM, 24 h
CSNK1D = CSNK1D (Homo sapiens, UniProt P48730); settings: cited from earlier work
Chain of CSNK1D (P48730 whole entry): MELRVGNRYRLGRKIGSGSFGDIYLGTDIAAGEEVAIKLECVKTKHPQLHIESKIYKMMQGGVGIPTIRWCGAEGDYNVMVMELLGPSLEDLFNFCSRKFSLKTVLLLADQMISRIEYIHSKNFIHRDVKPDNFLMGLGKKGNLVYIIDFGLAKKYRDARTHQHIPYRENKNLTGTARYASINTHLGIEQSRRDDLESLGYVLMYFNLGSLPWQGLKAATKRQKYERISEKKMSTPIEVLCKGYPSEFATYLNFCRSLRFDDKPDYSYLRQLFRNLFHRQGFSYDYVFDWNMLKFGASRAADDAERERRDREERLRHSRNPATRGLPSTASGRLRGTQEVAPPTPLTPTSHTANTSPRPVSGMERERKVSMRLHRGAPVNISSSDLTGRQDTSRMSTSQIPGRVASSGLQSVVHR

CDC42BPB/MRCKB = CDC42BPB/MRCKB (Homo sapiens, UniProt Q9Y5S2); settings: cited from earlier work
SH-SY5Y cells = assay: AK (adenylate kinase) release ToxiLight cytotoxicity assay; settings: PKIS2 primary screening
Description: Total cell lysis with 5 µL 5% Triton-X 100 (Sigma-Aldrich, T8787) is used as a positive control for the assay and toxicity is expressed as a percentage of luminescence under DMSO conditions.

PIKFYVE = PIKFYVE (Homo sapiens, UniProt Q9Y2I7); settings: cited from earlier work
CSNK1E = CSNK1E (Homo sapiens, UniProt P49674); settings: cited from earlier work
Chain of CSNK1E (P49674 whole entry): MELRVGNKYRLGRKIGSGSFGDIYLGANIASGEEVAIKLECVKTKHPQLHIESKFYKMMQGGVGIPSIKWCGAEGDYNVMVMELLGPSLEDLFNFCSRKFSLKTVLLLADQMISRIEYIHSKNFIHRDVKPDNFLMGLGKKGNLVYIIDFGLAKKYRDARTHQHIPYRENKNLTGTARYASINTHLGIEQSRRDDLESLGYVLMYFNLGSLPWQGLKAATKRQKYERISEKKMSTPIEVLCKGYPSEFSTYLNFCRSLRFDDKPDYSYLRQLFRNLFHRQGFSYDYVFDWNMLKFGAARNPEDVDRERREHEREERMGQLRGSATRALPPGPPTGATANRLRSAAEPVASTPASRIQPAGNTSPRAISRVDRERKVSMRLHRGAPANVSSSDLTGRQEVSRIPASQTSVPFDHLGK

PRKD1 = biological target: T3, PRKD1 (Homo sapiens, UniProt Q15139); settings: cited from earlier work
T3 sequence (Q15139 1-912): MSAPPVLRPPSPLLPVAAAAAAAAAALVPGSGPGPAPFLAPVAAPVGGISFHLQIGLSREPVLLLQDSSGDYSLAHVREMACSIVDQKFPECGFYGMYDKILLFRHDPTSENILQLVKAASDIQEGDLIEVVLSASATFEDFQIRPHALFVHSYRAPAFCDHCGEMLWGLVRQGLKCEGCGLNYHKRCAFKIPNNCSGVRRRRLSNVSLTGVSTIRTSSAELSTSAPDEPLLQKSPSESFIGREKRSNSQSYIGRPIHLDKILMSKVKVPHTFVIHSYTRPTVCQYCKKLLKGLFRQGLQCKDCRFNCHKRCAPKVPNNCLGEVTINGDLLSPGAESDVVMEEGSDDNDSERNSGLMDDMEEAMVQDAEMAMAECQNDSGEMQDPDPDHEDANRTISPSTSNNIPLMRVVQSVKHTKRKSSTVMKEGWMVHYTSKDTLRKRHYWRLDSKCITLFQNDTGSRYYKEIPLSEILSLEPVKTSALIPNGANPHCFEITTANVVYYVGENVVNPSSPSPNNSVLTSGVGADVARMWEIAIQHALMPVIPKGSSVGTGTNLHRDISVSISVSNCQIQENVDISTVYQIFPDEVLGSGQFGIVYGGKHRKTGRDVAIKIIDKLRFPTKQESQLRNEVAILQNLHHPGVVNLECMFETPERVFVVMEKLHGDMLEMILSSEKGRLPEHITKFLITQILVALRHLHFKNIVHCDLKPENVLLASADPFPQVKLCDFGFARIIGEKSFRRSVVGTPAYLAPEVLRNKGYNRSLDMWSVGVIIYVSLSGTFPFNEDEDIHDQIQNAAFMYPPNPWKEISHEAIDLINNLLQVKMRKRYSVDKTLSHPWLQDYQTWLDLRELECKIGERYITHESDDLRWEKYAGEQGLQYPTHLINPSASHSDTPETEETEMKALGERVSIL

CIT = CIT (Homo sapiens, UniProt O14578); settings: cited from earlier work
Chain of CIT (O14578 whole entry): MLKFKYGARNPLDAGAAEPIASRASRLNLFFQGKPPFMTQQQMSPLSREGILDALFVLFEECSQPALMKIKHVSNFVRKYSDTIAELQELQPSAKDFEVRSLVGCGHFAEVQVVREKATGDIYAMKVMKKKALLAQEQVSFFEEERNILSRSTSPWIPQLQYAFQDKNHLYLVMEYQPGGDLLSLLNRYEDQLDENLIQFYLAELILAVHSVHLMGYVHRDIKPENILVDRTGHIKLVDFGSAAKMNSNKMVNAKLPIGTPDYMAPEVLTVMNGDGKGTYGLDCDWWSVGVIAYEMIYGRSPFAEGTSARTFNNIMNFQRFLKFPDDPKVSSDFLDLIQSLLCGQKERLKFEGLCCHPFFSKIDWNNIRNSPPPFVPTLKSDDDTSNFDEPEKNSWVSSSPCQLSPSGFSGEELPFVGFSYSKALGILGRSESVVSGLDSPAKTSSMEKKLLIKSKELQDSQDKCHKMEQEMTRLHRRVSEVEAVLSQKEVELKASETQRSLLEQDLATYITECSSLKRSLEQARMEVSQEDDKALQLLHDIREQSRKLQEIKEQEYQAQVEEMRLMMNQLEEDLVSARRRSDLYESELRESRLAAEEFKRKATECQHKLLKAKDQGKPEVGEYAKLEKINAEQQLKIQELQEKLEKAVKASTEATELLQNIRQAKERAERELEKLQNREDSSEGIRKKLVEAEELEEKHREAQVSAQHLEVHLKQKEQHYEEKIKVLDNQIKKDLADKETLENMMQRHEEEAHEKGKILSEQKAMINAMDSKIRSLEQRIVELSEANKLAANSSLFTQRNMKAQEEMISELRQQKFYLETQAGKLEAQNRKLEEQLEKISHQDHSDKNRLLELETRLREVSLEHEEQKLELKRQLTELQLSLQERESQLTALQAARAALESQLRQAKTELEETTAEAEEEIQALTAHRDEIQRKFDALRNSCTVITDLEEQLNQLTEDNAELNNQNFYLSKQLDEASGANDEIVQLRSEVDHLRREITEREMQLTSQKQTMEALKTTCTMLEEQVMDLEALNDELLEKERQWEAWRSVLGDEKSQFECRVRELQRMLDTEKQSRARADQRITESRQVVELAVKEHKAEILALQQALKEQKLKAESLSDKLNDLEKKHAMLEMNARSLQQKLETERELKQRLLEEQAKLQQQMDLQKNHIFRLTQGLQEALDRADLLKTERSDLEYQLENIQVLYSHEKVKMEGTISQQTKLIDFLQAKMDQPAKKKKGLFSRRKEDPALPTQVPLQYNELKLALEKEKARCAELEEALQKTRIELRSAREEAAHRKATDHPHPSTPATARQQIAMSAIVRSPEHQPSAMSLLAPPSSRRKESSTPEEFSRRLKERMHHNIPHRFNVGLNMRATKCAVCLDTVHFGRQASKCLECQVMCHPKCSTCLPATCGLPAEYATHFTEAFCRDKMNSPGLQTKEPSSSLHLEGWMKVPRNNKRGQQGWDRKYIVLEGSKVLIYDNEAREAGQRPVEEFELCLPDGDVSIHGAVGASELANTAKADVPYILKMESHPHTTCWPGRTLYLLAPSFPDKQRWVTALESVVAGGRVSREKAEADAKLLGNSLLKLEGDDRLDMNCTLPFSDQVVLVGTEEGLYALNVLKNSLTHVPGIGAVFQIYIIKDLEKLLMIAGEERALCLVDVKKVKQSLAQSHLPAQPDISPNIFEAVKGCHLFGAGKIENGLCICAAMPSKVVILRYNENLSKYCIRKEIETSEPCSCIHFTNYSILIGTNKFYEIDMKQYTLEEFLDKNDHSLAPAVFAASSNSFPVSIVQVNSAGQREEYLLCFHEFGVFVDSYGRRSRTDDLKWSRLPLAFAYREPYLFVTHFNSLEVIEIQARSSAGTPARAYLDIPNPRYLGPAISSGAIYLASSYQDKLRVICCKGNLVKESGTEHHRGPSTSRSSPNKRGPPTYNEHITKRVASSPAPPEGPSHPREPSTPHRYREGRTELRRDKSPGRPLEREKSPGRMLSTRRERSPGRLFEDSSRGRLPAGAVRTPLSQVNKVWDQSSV

Chain of TGFBR2 (P37173 23-567): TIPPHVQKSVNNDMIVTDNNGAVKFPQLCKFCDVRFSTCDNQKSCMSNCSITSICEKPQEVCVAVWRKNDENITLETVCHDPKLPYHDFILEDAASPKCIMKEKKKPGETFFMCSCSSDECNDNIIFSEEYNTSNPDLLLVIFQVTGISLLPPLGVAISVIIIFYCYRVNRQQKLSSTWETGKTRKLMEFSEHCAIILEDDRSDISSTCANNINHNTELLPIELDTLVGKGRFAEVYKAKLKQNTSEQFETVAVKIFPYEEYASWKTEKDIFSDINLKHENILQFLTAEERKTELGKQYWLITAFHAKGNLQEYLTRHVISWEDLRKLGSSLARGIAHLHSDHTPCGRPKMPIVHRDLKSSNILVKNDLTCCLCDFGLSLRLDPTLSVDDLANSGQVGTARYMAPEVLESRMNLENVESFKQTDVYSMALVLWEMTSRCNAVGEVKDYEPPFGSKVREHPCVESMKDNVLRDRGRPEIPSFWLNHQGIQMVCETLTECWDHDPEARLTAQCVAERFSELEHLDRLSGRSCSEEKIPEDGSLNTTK

| SMILES | KINOMEscan binding TGFBR2 (TGFBR2) [%] | KINOMEscan binding MTOR (MTOR) [%] | KINOMEscan binding ACVR1B (ACVR1B) [%] | KINOMEscan binding PRKD2 (PRKD2) [%] | KINOMEscan binding CDC42BPG/DMPK2 (CDC42BPG/DMPK2) [%] | TFE3 % (endogenous TFE3) [%] | nTFE3 % (endogenous TFE3; SH-SY5Y) [%] | KINOMEscan binding CSNK1D (CSNK1D) [%] | KINOMEscan binding CDC42BPB/MRCKB (CDC42BPB/MRCKB) [%] | AK (SH-SY5Y cells) | KINOMEscan binding PIKFYVE (PIKFYVE) [%] | KINOMEscan binding CSNK1E (CSNK1E) [%] | KINOMEscan binding PRKD1 (PRKD1) [%] | KINOMEscan binding CIT (CIT) [%] | TFE3 translocation (in words) (endogenous TFE3; SH-SY5Y, 24 h treatment) |
| --- | --- | --- | --- | --- | --- | --- | --- | --- | --- | --- | --- | --- | --- | --- | --- |
| Cc1cccc(-c2nc(Nc3ccc4c(cnn4C)c3)c3ccccc3n2)n1 [GW876731] | 0 | 0 | 64 | 99.6 | 22 | 20.31 | 20.3 | 50 | 34 | 73.05 | 91.5 | 37 | 99.2 | 12 |  |
| Cc1cccc(-c2nc(Nc3ccc4nn[nH]c4c3)c3ccccc3n2)n1 [GW867587] | 0 | 5 | 0 | 98.1 | 0 | 12.03 | 12 | 4 | 2 | 54.27 | 13 | 0 | 94.2 | 15 |  |
| Cc1cccc(-c2nc(C)cc(Nc3ccncc3)n2)n1 [GSK257997] | 4 | 13 | 78 | 80 | 89 | 9.74 | 9.7 | 43 | 81 | 66.29 | 27 | 42 | 78 | 23 | did not show TFEB and TFE3 activation |
| Cc1cccc(-c2nc(Nc3ccncc3)c3ccccc3n2)n1 [GW855857] | 95.7 | 50 | 94.3 | 99 | 76 | 15.51 | 15.5 | 73 | 63 | 89.05 | 57 | 77 | 86 | 91.1 |  |
| Clc1cccc(-c2nc(Nc3ccncc3)c3ccccc3n2)c1 [GW873004] | 17 | 36 | 72 | 45 | 84 | 19.51 | 19.5 | 12 | 42 | 129.21 | 61 | 23 | 47 | 57 |  |
| Cc1cc(Nc2nc(-c3cccc(C)n3)nc3ccccc23)ccn1 [GW872411] | 0 | 73 | 73 | 99.9 | 2 | 20.21 | 20.2 | 35 | 0 | 69.93 | 53 | 31 | 99.4 | 0 |  |
| Cc1cccc(-c2nc(Nc3ccc4ncsc4c3)c3ccccc3n2)n1 [GW867588] | 0 | 0 | 35 | 99.8 | 9 | 18.78 | 18.7 | 0 | 33 | 60.47 | 54 | 6 | 98.7 | 13 |  |
